Assay results as given in patent publication US6683103B2, “Sulfonamides for treatment of endothelin-mediated disorders” (Texas Biotechnology Corporation, priority 1997, dated 2004).

How the values were obtained:
[1] = Solubility in aqueous media
[2] = Stability of solutions, percent remaining by HPLC; format: physicochemical

In the case of Cc1cc2c(cc1CC(=O)c1sccc1S(=O)(=O)Nc1onc(C)c1Cl)OCO2.[Na] [sodium], the “solubility compared to the neutral compound” value [1] is reported as “improved solubility over the neutral compound”, the “percent remaining (HPLC)” value ([2]; 0.49 mg/mL, 1.5% PVP + 3.0% PG, 24 h) is reported as 90.0% and the “percent remaining (HPLC)” value ([2]; 0.51 mg/mL, 5% dextrose, 24 h) is reported as 99.4%. The “percent remaining (HPLC)” value ([2]; 0.51 mg/mL, normal saline, 24 h) was 96.9%, the “percent remaining (HPLC)” value ([2]; 0.57 mg/mL, 0.75% PVP + 1.5% PG, 24 h) was 74.4% and the “percent remaining (HPLC)” value ([2]; 20 mg/mL, 5% dextrose + 5% PG + citrate buffer, 0.3% w/v (pH 7.5), 26 h (4° C.)) was 97.2%. For the same molecule, the “percent remaining (HPLC)” value ([2]; 20 mg/mL, 5% dextrose + 5% buffer (pH 7.0), 24 h) was 92.6%, the “percent remaining (HPLC)” value ([2]; 20 mg/mL, 5% dextrose + K-phosphate buffer, 2.5% w/v (pH 6), 24 h) was 84.6% and the “percent remaining (HPLC)” value ([2]; 20 mg/mL, 5% dextrose + K-phosphate buffer, 2.5% w/v (pH 7), 20 h) was 92.6%. The “percent remaining (HPLC)” value ([2]; 20 mg/mL, 5% dextrose + K-phosphate buffer, 2.5% w/v (pH 7.5), 24 h) was 93.4%, the “percent remaining (HPLC)” value ([2]; 20 mg/mL, 5% dextrose + citrate buffer, 0.3% w/v (pH 7.5), 27 h (4° C.)) was 96.6% and the “percent remaining (HPLC)” value ([2]; 20 mg/mL, 5% dextrose + citrate buffer, 0.3% w/v (pH 8), 21 h) was 92.9%. For the same molecule, the “percent remaining (HPLC)” value ([2]; 20 mg/mL, 5% dextrose, 24 h (13° C.)) was 93.7%, the “percent remaining (HPLC)” value ([2]; 20 mg/mL, 5% dextrose, 25 h (10° C.)) was 93.7% and the “percent remaining (HPLC)” value ([2]; 20 mg/mL, 10% dextrose + 10% PG + Na-phosphate buffer, 0.3% w/v (pH 7.5), 24 h) was 90.7%. For the same molecule, the “percent remaining (HPLC)” value ([2]; 20 mg/mL, 10% dextrose, 24 h) was 93.4%, the “percent remaining (HPLC)” value ([2]; 30 mg/mL, 5% dextrose, 24 h) was 92.2% and the “percent remaining (HPLC)” value ([2]; 30 mg/mL, 10% dextrose + 10% PG + citrate buffer, 0.3% w/v (pH 7.5), 24 h (4° C.)) was 98.0%. For the same molecule, the “percent remaining (HPLC)” value ([2]; 30 mg/mL, 20% sorbitol, 24 h) was 93.2%, the “percent remaining (HPLC)” value ([2]; 100 mg/mL, 5% dextrose, 6 h) was 93.0% and the “percent remaining (HPLC)” value ([2]; 100 mg/mL, 10% dextrose +10% PG + citrate buffer, 0.3% w/v (pH 7.5), 24 h) was 94.2%. The “percent remaining (HPLC)” value ([2]; 100 mg/mL, 30% sorbitol, 24 h) was 93.2%, the “stability compared to the sodium hydrogen phosphate salt” value ([2]; certain aqueous formulations) was “as stable as the sodium hydrogen phosphate salt” and the “percent remaining (HPLC)” value ([2]; mg/mL not given, 10% dextrose + 10% PG + Na-phosphate buffer, 0.3% w/v (pH 7.5), 24 h (4° C.)) was 97.4%. For the same molecule, the “percent remaining (HPLC)” value ([2]; mg/mL not given, 10% dextrose + 10% PG + Na-phosphate buffer, 0.3% w/v (pH 8), 24 h (4° C.)) was 96.4%, the “percent remaining (HPLC)” value ([2]; mg/mL not given, 10% dextrose + 10% PG + citrate buffer, 0.3% w/v (pH 7.4), 24 h (4° C.)) was 97.6% and the “percent remaining (HPLC)” value ([2]; mg/mL not given, 10% dextrose + 10% PG, 24 h (4° C.)) was 97.6%.
